Results: US20070010484A1, “Method for treating or inhibiting the effects of injuries or diseases that result in neuronal degeneration and method for promoting neurogenesis” (YEDA RESEARCH AND DEVELOPMENT CO. LTD., priority 2003, published 2007)

How the values were obtained:
NF-κB = assay: Western blot of NF-κB in T-cell nuclear extracts; format: cell-based, human; settings: T cells activated by anti-CD3 Ab
Protocol: Western blot analysis of T-cell nuclear extracts. Purified T cells (5×10^6) were preincubated for 2 h with different concentrations of CSPG-DS. The cells were then replated at the same CSPG-DS concentration on 24-well plates pre-coated for 24 h with anti-CD3 mAb. The T cells were lysed in 10 mM HEPES, 1.5 mM MgCl2, 1 mM dithiothreitol, 1 mM PMSF, and 0.5% Nonidet P-40 (buffer A). The lysates were incubated on ice for 10 min and centrifuged at 2000 rpm for 10 min at 4° C. The supernatants (cytoplasmic extracts) were transferred and the pellets (nuclei) were suspended in buffer containing 30 mM HEPES, 450 mM NaCl, 25% glycerol, 0.5 mM EDTA, 6 mM dithiothreitol, 12 mM MgCl2 1 mM PMSF, 10 μg/ml leupeptin, 10 μg/ml pepstatin, and 1% phosphatase inhibitor cocktail (buffer B), and the suspension was incubated on ice for 30 min. The lysates were cleared by centrifugation (30 min, 14×10^3 rpm, 4° C.), and the resulting supernatants were analyzed for protein content. Sample buffer was added, the mixture was boiled, and the samples containing equal amounts of proteins were separated on 10% SDS-PAGE gel and transferred to nitrocellulose membranes. […]

[1] = tested on: Organotypic hippocampal slice cultures (OHSC); assay: Organotypic hippocampal slice cultures, propidium iodide staining; format: cell-based; settings: rat OHSCs, 2.5 μg/ml or 25 μg/ml, 24 h
Protocol: Organotypic hippocampal slice cultures (OHSC): OHSC were prepared as described (Franklin and Paxinos, 1997) from rats brains (Lewis aged 8-10 days) CSPG-DSs were added to the OHSCs for 24 h. Propidium iodide (5 μg/ml; Sigma) was then added to the medium for 30 min. The brain slices were examined under a Zeiss laser-scanning confocal microscope (LSM510) or a Zeiss Axioplane 100 fluorescence light microscope.

CC(=O)N[C@H]1C(O)O[C@H](COS(=O)(=O)O)[C@H](O)[C@@H]1O[C@@H]1OC(C(=O)O)=C[C@H](O)[C@H]1O (stereo partly drawn) [CSPG-DS, 2-acetoamido-2-deoxy-3-O-(β-D-gluco-4-enepyranosyluronic acid)-6-O-sulfo-D-galactose]
NF-κB levels in nuclei (NF-κB): reduction
neuronal loss (propidium iodide staining) [1]: significantly reduced
